Key:
Btk enzyme (His-Btk) = Btk enzyme (His-Btk) (Homo sapiens (Human), UniProt Q06187); experiment: Btk enzyme activity, IMAP fluorescence polarization assay; details: 60 min pre-incubation, 5 μM ATP, bin bound in nM
Lck enzyme = Lck enzyme (Homo sapiens (Human), UniProt P06239); experiment: Lck enzyme activity, IMAP fluorescence polarization assay; details: 60 min pre-incubation, 6 μM ATP, bin bound in μM
Lyn enzyme = Lyn enzyme (Homo sapiens (Human), UniProt P07948); experiment: Lyn enzyme activity, IMAP fluorescence polarization assay; details: for EC50 Lyn activity values: IMAP, 60 min pre-incubation, 2 μM ATP, bin bound in μM
Chain of Lyn enzyme (P07948 whole entry): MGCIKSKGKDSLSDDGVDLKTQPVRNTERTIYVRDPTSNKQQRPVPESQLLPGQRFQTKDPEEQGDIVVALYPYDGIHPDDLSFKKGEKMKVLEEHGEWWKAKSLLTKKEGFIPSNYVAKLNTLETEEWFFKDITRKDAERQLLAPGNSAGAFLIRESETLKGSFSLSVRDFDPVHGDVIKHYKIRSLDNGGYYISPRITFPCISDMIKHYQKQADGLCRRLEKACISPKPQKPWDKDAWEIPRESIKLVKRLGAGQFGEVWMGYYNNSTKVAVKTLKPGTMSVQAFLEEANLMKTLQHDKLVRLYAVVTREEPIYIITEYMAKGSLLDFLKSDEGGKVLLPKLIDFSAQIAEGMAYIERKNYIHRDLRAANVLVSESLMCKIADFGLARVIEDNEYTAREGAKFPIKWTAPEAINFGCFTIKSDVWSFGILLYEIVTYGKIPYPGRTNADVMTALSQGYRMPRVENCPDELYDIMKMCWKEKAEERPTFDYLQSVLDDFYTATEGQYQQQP

Chain of Lck enzyme (P06239 whole entry): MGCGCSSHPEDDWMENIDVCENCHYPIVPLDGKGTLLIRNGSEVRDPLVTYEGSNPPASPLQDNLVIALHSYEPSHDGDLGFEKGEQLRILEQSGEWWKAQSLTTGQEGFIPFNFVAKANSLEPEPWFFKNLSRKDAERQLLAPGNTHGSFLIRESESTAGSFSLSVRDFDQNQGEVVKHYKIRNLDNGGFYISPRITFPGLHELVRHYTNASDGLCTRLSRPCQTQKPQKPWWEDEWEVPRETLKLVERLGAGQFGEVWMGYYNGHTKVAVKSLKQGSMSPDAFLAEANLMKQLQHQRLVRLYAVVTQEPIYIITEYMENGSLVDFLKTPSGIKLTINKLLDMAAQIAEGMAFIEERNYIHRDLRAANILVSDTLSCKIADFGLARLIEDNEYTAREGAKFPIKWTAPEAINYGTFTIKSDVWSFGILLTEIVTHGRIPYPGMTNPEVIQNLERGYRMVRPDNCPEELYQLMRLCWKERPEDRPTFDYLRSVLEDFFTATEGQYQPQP
Chain of Btk enzyme (His-Btk) (Q06187 whole entry): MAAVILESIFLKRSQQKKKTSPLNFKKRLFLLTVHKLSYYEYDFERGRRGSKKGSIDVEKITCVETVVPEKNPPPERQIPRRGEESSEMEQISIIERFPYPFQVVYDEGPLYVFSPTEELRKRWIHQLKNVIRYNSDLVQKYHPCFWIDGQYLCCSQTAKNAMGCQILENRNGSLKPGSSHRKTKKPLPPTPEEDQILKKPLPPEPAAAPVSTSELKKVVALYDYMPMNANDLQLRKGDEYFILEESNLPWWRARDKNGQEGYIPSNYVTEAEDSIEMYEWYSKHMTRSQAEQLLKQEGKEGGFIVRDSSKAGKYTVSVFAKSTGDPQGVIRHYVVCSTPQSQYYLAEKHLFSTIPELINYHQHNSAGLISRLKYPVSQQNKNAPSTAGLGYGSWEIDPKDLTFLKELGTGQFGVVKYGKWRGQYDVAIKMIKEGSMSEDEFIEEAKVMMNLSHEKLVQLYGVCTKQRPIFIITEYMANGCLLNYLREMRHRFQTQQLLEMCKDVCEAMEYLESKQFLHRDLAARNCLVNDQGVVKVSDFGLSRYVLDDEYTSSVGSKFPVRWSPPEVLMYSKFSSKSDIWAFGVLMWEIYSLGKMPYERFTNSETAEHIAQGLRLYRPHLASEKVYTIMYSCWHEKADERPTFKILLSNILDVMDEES

| Structure (SMILES) | EC50 Btk activity values (Btk enzyme (His-Btk)) | EC50 Lck activity values (Lck enzyme) | EC50 (Lyn enzyme) | EC50 Lyn activity values (Lyn enzyme) |
| --- | --- | --- | --- | --- |
| CC#CC(=O)N1CCC[C@H]1c1nc(-c2ccc(C(=O)Nc3nccs3)cc2)c2c(N)nccn12 [Example 60, (S)-4-(8-amino-3-(1-but-2-ynoylpyrrolidin-2-yl)imidazo[1,5-a]pyrazin-1-yl)-N-(thiazol-2-yl)benzamide] | <100 nM | <1 µM | 100 to 1000 nM | <1 µM |
| C=CC(=O)N1CCC[C@H]1c1nc(-c2ccc(C(=O)Nc3cc(CCC)ccn3)cc2)c2c(N)nccn12 [Example 125, (S)-4-(3-(1-acryloylpyrrolidin-2-yl)-8-aminoimidazo[1,5-a]pyrazin-1-yl)-N-(4-propylpyridin-2-yl)benzamide] | – | <1 µM | – | <1 µM |
| C=CC(=O)N1CCC[C@H]1c1nc(-c2ccc(C(=O)Nc3cc(CC)ccn3)cc2)c2c(N)nccn12 [Example 126, (S)-4-(3-(1-acryloylpyrrolidin-2-yl)-8-aminoimidazo[1,5-a]pyrazin-1-yl)-N-(4-ethylpyridin-2-yl)benzamide] | – | <1 µM | – | <1 µM |
| C=CC(=O)N1CCC[C@H]1c1nc(-c2ccc(C(=O)Nc3cc(-c4ccccc4)ccn3)cc2)c2c(N)nccn12 [Example 133, (S)-4-(3-(1-acryloylpyrrolidin-2-yl)-8-aminoimidazo[1,5-a]pyrazin-1-yl)-N-(4-phenylpyridin-2-yl)benzamide] | – | <1 µM | – | <1 µM |

Source: patent publication US10239883B2, “4-imidazopyridazin-1-yl-benzamides as BTK inhibitors” (Merck Sharp & Dohme B.V., priority 2011, dated 2019)
